Key:
FLT3(ITD, D835V) = target: T1, FLT3(ITD, D835V) (Homo sapiens, UniProt P36888, D835V, form not given); format: binding
T1 construct: fused on or other part: DNA tag for the qPCR read-out (the KINOMEscan format)
T1 sequence (P36888 1-993 D835V): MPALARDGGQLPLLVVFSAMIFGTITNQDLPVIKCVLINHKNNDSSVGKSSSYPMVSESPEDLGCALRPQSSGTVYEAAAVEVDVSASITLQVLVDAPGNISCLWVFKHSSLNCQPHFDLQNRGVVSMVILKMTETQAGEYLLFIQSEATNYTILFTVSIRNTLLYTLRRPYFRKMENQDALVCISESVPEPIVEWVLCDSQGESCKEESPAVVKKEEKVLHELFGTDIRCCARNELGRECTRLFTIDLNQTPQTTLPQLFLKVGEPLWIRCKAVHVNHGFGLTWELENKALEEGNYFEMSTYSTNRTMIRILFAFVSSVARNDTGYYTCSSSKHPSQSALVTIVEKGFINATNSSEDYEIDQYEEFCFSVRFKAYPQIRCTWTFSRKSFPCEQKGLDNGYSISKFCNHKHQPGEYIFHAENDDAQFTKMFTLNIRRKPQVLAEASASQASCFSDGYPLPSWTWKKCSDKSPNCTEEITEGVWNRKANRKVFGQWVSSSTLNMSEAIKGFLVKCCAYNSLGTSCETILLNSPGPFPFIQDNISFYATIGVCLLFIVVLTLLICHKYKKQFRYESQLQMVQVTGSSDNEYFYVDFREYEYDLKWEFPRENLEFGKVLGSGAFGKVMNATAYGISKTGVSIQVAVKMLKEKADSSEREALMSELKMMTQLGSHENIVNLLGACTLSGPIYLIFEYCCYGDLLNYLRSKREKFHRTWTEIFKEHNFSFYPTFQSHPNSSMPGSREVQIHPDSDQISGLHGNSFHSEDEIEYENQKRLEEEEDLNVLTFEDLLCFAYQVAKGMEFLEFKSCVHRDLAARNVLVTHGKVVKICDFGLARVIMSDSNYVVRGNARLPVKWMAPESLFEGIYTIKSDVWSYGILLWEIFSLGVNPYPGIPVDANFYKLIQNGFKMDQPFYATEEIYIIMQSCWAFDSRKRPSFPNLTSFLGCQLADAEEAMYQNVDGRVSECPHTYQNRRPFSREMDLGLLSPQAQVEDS
Procedure: (§1) The assay was carried out using KINOMEscan™ technology. The assay compounds were stored in 100% DMSO. The assay was carried out by means of 3-fold dilution and 11-point fitting. All compounds used for Kd determination were dispersed by ultrasound, then directly diluted and tested. All reactions were carried out in a 384-well polypropylene plate. Each portion has a final volume of 0.02 ml. The plate was incubated with shaking at room temperature for 1 hour, and then processed. The kinase concentration in the eluent was finally determined by qPCR method. Kd was obtained by fitting.

FLT3(K663Q) = target: T2, FLT3(K663Q) (Homo sapiens, UniProt P36888, K663Q); format: binding
T2 sequence (P36888 27-993 K663Q): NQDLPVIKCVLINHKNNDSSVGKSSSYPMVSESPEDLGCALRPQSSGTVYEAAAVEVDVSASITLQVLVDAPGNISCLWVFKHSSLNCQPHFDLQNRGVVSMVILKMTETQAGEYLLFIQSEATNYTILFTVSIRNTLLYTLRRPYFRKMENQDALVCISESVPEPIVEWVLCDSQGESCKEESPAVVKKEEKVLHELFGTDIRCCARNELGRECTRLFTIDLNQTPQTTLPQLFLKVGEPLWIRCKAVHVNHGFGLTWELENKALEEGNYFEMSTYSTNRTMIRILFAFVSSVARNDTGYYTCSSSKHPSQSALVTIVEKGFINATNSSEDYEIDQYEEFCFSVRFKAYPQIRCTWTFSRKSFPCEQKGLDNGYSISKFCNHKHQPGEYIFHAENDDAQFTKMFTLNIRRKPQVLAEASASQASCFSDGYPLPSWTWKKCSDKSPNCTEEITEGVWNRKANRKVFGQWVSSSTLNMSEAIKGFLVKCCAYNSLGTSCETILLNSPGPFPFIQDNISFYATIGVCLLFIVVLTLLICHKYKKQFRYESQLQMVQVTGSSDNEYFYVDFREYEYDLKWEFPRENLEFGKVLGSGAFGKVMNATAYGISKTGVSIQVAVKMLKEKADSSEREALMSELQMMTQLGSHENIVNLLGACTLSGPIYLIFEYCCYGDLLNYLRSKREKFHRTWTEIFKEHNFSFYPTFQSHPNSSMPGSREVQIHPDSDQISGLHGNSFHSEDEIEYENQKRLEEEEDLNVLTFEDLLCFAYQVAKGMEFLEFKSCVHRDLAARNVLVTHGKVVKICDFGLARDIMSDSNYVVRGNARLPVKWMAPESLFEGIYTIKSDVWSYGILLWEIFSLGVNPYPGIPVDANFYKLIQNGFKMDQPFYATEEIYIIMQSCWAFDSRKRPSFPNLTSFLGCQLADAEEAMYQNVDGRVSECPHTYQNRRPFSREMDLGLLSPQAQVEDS
Procedure: as §1

`CCc1nc(C(N)=O)c(Nc2ccc(N3CCC4(CCN(C)CC4)CC3)c(C)c2)nc1NC1CCOCC1.O=C(O)C(F)(F)F` was tested, and the Kd (FLT3(ITD, D835V)) was 0.2 nM, the Kd (FLT3(K663Q); FLT3(K663Q)) was 10 nM and the “activity higher than that of the known compound B” value (FLT3(K663Q); FLT3 (K663Q), ratio of Kd versus compound B) was 5.9 times.
